According to patent US8575103B2, “Peptides and methods for inhibiting G alpha protein signaling” (The Board of Trustees of the University of Illinois, priority 2009, dated 2013):
Entries after “also recorded” stand apart in the source; their conditions may differ. Where no end group is shown, it is not given here.

How the values were obtained:
α11bβ3 integrin [1] = test: platelet α11bβ3 integrin activation, FITC-PAC1 antibody binding by flow cytometry; format: cell-based, human; conditions: 150 μM peptide, 0.5 μM U46619, FITC-PAC1, compared to 500 μM Random Peptide
Protocol: The platelet count in human PRP was adjusted to 1×10^6 platelets/ml. The platelets were then labeled with FITC-conjugated PAC1 antibody against activated α11bβ3 integrin, and the samples were analyzed by flow cytometry in a Beckman Coulter CyAn II Flow Cytometer. Trace (a) depicts resting platelets labeled with FITC-PAC-1 antibody. Trace (b) depicts platelets stimulated with 0.5 μM U46619 and labeled with FITC-PAC1 antibody. Trace (c) depicts platelets incubated with 500 μM of the Random Peptide (SEQ ID NO:9), followed by 0.5 μM U46619 stimulation and FITC-PAC1 labeling. Trace (d) depicts platelets incubated with 150 μM of the G13SR2pep, followed by 0.5 μM U46619 stimulation and FITC-PAC1 labeling.
Subsequent experiments examined the effect of G13SR2pep, (SEQ ID NO:5) on human platelet α11bβ3 integrin activation as measured by FITC-PAC-1 antibody binding.

CD1 mice = test: bleeding time in mice after intravenous administration; format: in vivo; conditions: 100 μl of 3.7 mM intravenously via tail vein, tail cut five minutes after administration
Protocol: Briefly, CD1 mice (25 grams) were anesthetized with sodium pentobarbital, and either 100 μl of vehicle or 100 μl of a vehicle solution containing 3.7 mM of each peptide or aspirin was administered intravenously via the tail vein. Five minutes following administration, the tail was cut 0.5 cm from the tip and immersed in PBS buffer (pH 7.4; 37EC). Cessation of bleeding was observed visually and the total bleeding time was recorded.

calcium mobilization = test: calcium flux / calcium mobilization in platelets; format: cell-based, human; conditions: 250 μM peptide; induced by TRAP1 (10 μM), U46619 (0.5 μM) or ADP (10 μM)
Protocol: (§1) To further investigate the mechanism(s) by which G13SR2pep (SEQ ID NO:5) inhibited α11bβ3 integrin activation, the effect of G13SR2pep on calcium flux, RhoA activation, Src activation and changes in cAMP levels was determined using conventional assays.

RhoA = RhoA activation in platelets; format: cell-based, human; conditions: 250 μM peptide; induced by TRAP1 (10 μM), U46619 (0.5 μM) or ADP (10 μM)
Protocol: as §1

Src = Src activation in platelets; format: cell-based, human; conditions: 250 μM peptide; induced by TRAP1 (10 μM), U46619 (0.5 μM) or ADP (10 μM)
Protocol: as §1

cAMP levels = cAMP levels in human platelet-rich plasma; format: cell-based; conditions: 250 μM peptide
Protocol: as §1

α11bβ3 integrin [2] = target: T1, α11bβ3 integrin (Homo sapiens, UniProt P05106+P08514+Q9Y490); test: peptide affinity column with solubilized human platelets, western blot for α11bβ3; format: binding; conditions: immunoblot, bands at 130 kD and 115 kD
T1 construct: detected two bands, one at 130 kD and the other at 115 kD in solubilized human platelets; endogenous in cells; host or cells: solubilized human platelets
From the text: (§2) On this basis, subsequent experiments examined whether G13SR2pep peptide (SEQ ID NO:5) does indeed directly interact with α11bβ3 and/or one of its associated proteins in human platelets. In this respect, platelet α11bβ3 integrin is known to exist in a complex with two cytoplasmic proteins, i.e., talin and kindlin-3 (Tadokoro, et al. (2003) Science 302:103-6; Moser, et al. (2008) Nature Med. 14:325-30). To determine whether G13SR2pep, (SEQ ID NO:5) interacts with any of these proteins (or with the entire α11bβ3, talin, kindlin-3 complex), peptide affinity columns using G13SR2pep (SEQ ID NO:5) were employed. The affinity purified protein(s) from solubilized human platelets that specifically bound to the G13SR2pep peptide were eluted, and analyzed by western blot for α11bβ3 integrin, talin and kindlin-3. In similar experiments, the eluates from a peptide column using the G13SR2-Random Peptide (SEQ ID NO:9) were also analyzed. Immunoblot analysis with the α11bβ3 antibodies (Abcam) detected two bands, one at 130 kD and the other at 115 kD in solubilized human platelets as well as in the elution fraction obtained from the G13SR2pep (SEQ ID NO:5) affinity column. […] This was supported by similar experiments using talin antibodies and the kindlin 3 antibody (Abcam).

talin = target: T2, talin (Homo sapiens, UniProt Q9Y490); test: peptide affinity column with solubilized human platelets, western blot for talin; format: binding
T2 construct: also purified whole talin (220 kD), the talin head domain (47 kD) and kindlin 3 (72 kD); endogenous in cells; host or cells: solubilized human platelets
From the text: as §2
Thus, the binding of G13SR2pep (SEQ ID NO:5) to the talin head domain serves as the basis for the ability of G13SR2pep to inhibit α11bβ3 integrin activation and platelet aggregation. As such, peptides or specific compounds fashioned to mimic or modify the switch region interaction with talin, α11bβ3 integrin or other α11bβ3 integrin-associated proteins would have profound effects on thrombosis and other integrin-linked disease processes.

kindlin-3 = target: T3, kindlin-3 (Homo sapiens, UniProt Q86UX7); test: peptide affinity column with solubilized human platelets, western blot for kindlin-3; format: binding; conditions: immunoblot, kindlin 3 (72 kD)
T3 construct: also purified whole talin (220 kD), the talin head domain (47 kD) and kindlin 3 (72 kD); endogenous in cells; host or cells: solubilized human platelets
From the text: as §2

human platelets = test: human platelet aggregation in platelet rich plasma (PRP); format: cell-based; conditions: PRP

T2 sequence (Q9Y490 1-433): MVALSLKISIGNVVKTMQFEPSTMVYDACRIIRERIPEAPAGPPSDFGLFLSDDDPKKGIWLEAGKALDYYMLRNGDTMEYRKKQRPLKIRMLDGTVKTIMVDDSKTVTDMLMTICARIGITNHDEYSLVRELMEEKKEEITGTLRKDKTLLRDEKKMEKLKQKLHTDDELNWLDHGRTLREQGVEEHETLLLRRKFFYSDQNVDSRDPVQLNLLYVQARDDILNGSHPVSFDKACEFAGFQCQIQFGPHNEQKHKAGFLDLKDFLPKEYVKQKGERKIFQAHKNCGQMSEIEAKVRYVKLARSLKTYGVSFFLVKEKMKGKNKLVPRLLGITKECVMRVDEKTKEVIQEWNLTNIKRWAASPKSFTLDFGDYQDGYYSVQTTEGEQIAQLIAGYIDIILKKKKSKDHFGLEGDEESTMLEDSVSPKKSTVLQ

VGGQRSERKRWFECFDS [G13SR2pep, non-myristoylated G13 Switch Region 2 peptide]
inhibition of U46619-mediated activation of α11bβ3 integrin (α11bβ3 integrin [1]): dramatically inhibited
bleeding time (CD1 mice): increased bleeding times; also recorded: substantially increases
calcium mobilization (calcium mobilization): did not alter
RhoA activation (RhoA): did not alter
Src activation (Src): did not alter
cAMP levels (cAMP levels): did not alter
α11bβ3 in affinity column eluate (interaction with peptide) (α11bβ3 integrin [2]): directly interacts
talin in affinity column eluate (talin; solubilized human platelets, immunoblot, whole talin (220 kD), talin head domain (47 kD)): purified
binding to talin head domain (talin; α11bβ3-talin-kindlin 3 complex dissociated, affinity column eluates): binding partner
kindlin 3 in affinity column eluate (kindlin-3): purified
platelet aggregation induced by the divalent cation ionophore A23187 (human platelets; 150 μM peptide, 10 μM A23187): capable of blocking
inhibition of human platelet aggregation stimulated by U46619 (human platelets; 75-150 μM G13SR2pep (Random Peptide 500 μM), 0.5 μM U46619): dose-dependent inhibition
inhibition of human platelet aggregation stimulated by ADP (human platelets; 75-150 μM G13SR2pep (Random Peptide 500 μM), 10 μM ADP): dose-dependent inhibition
inhibition of human platelet aggregation stimulated by TRAP1 (human platelets; 75-150 μM G13SR2pep (Random Peptide 500 μM), 15 μM TRAP1): dose-dependent inhibition
inhibition of human platelet aggregation stimulated by TRAP4 (human platelets; 75-150 μM G13SR2pep (Random Peptide 500 μM), 50 μM TRAP4): dose-dependent inhibition
